Test results reported in ChEMBL document CHEMBL5729210, “Benzodiazepine derivatives as RSV inhibitors” (2022).
Where “and” joins values, the source holds several entries; their conditions need not be identical. Identical values can stand only once.

Test: RSV-A Assay: The description is Japanese.

O=C1Nc2ccccc2C(c2ccc(F)cc2)=NC1Nc1nnc(-c2ccc(F)cc2)o1 (stereo unspecified) showed an EC50 greater than 800 nM.

Compound COCCCc1cc(C(F)(F)F)cnc1C(=O)NN has an EC50 greater than 800 nM.

For COC(C)(C)CNc1cc(C(F)(F)F)cnc1-c1nnc(N[C@H]2N=C(c3ccccc3)c3ccccc3NC2=O)o1, the EC50 was greater than 800 nM.

With O=C1Nc2ccccc2C(c2ccccc2)=N[C@@H]1Nc1nnc(-c2nc3ccccc3nc2N2CCOCC2)o1 the EC50 was less than 400 nM.

For Cc1cc(-c2nnc(N[C@H]3N=C(c4ccccc4)c4ccccc4NC3=O)o2)n(C2CCOCC2)n1, the EC50 was greater than 800 nM.

With O=C1Nc2ccccc2C(c2ccccc2)=N[C@@H]1Nc1nnc(-c2ncc(C(F)(F)F)cc2NC[C@@H]2CCCO2)o1 the EC50 was “in the range around 600 nM”.

COc1ccn2ncc(-c3nnc(N[C@H]4N=C(c5ccccc5)c5ccccc5NC4=O)o3)c2c1 gave an EC50 greater than 800 nM.

In the case of O=C1Nc2ccccc2C(c2cccc(F)c2)=NC1Nc1nnc(-c2ccc(F)cc2)o1 (stereo unspecified), the EC50 is reported as “in the range around 600 nM”.

Compound O=C1Nc2ccccc2C(c2ccccc2)=N[C@@H]1Nc1nnc(-c2nc(-c3cccnc3)sc2N2CCOCC2)o1 has an EC50 of less than 400 nM.

With O=C1Nc2c(F)cccc2C(c2ccccc2)=N[C@@H]1Nc1nnc(-c2ccccc2N2CCOCC2)o1 the EC50 was less than 400 nM.

With O=C1Nc2ccccc2C(c2ccccc2)=NC1Nc1cnc(-c2ccc(F)cc2)cn1 (stereo unspecified) the EC50 was greater than 800 nM.

With O=C1Nc2ccccc2C(c2ccccc2)=N[C@@H]1Nc1nnc(-c2ccnn2-c2ccccc2)o1 the EC50 was greater than 800 nM.

In the case of O=C1Nc2ccccc2C(c2ccccc2)=NC1Nc1ncc(-c2ccccc2)cn1 (stereo unspecified), the EC50 is reported as greater than 800 nM.

O=C1Nc2ccccc2C(c2ccccc2)=N[C@@H]1Nc1nnc(-c2ncc(C(F)(F)F)cc2N[C@H]2CC[C@H]2O)o1 showed an EC50 greater than 800 nM.

For O=C1Nc2c(F)cccc2C(c2ccccc2)=NC1Nc1nnc(-c2ccc(N3CCOCC3)cc2)o1 (stereo unspecified), the EC50 was “in the range around 600 nM”.

With O=C1Nc2ccccc2C(c2ccccc2)=N[C@@H]1Nc1nnc(-c2nc(-c3ccccc3F)sc2N2CCOCC2)o1 the EC50 was less than 400 nM.

With N#Cc1cnc(-c2nnc(N[C@H]3N=C(c4ccccc4)c4cccc(F)c4NC3=O)o2)c(N2CCOCC2)c1 the EC50 was less than 400 nM.

With C#Cc1nc(C(=O)O)c(N2CCOCC2)s1 the EC50 was less than 400 nM.

Work on CS(=O)(=O)c1cnc(-c2nnc(N[C@H]3N=C(c4ccccc4)c4ccccc4NC3=O)o2)c(N2CCOCC2)c1 yielded an EC50 greater than 800 nM.

O=C1Nc2ccccc2C(c2ccccc2)=N[C@@H]1Nc1nnc(-c2ncsc2N2CCOCC2)o1 gave an EC50 of less than 400 nM.

In the case of O=C1Nc2ccccc2C(c2ccccc2)=N[C@@H]1Nc1nnc(-c2nc(C(F)(F)F)sc2N2CCOCC2)o1, the EC50 is reported as less than 400 nM.

Work on COc1ccc(-c2ccc(NC3N=C(c4ccccc4)c4ccccc4NC3=O)nn2)cc1 (stereo unspecified) yielded an EC50 greater than 800 nM.

For Cc1nc(-c2nnc(N[C@H]3N=C(c4ccccc4)c4ccccc4NC3=O)o2)c(C2=CCOCC2)s1, the EC50 was less than 400 nM.

Work on CCOC(=O)c1nc(-c2ccc(C(F)(F)F)nc2)sc1N1CCOCC1 yielded an EC50 of less than 400 nM.

With Cc1nc(-c2nnc(N[C@H]3N=C(c4ccccc4)c4ccccc4NC3=O)o2)c(Cl)s1 the EC50 was greater than 800 nM.

For CCOC(=O)c1nc(-c2cnn(C)c2)sc1N1CCOCC1, the EC50 was less than 400 nM.

With COCCn1ccc2cccc(C(=O)OC)c21 the EC50 was greater than 800 nM.

In the case of O=C1Nc2ccccc2C(c2ccccc2)=N[C@@H]1Nc1nnc(-c2ncsc2C2=CCOCC2)o1, the EC50 is reported as less than 400 nM.

Compound O=C1Nc2ccccc2C(c2ccccc2)=N[C@@H]1Nc1nnc(-c2nc(C3CCCCC3)sc2N2CCOCC2)o1 has an EC50 of less than 400 nM.

For O=C1Nc2ccccc2C(c2ccccc2)=N[C@@H]1Nc1nnc(-c2nc(-c3ccncc3)sc2N2CCOCC2)o1, the EC50 was less than 400 nM.

Work on CCOC(=O)c1nc(C)sc1NCCOC yielded an EC50 of less than 400 nM.

In the case of N#Cc1cnc(-c2nnc(N[C@H]3N=C(c4ccccc4)c4ccccc4NC3=O)o2)c(N2C3CCC2COC3)c1, the EC50 is reported as “in the range around 600 nM”.

Compound O=C1Nc2ccccc2C(c2ccccc2)=NC1Nc1nnc(-c2ccc(F)cc2)[nH]1 (stereo unspecified) has an EC50 greater than 800 nM.

Compound O=C1Nc2ccccc2C(c2ccccc2)=NC1Nc1ccc(-c2ccccc2N2CCOCC2)nn1 (stereo unspecified) has an EC50 greater than 800 nM.

Work on COC(=O)c1nc(Br)sc1N1CCOCC1 yielded an EC50 of less than 400 nM.

COCCn1cc(-c2nnc(N[C@H]3N=C(c4ccccc4)c4ccccc4NC3=O)o2)c(N2CCOCC2)n1 showed an EC50 of less than 400 nM.

For COCC1(Nc2cc(C(F)(F)F)cnc2-c2nnc(N[C@H]3N=C(c4ccccc4)c4ccccc4NC3=O)o2)CC1, the EC50 was greater than 800 nM.

O=C1Nc2ccccc2C(c2ccccc2)=N[C@@H]1Nc1nnc(-c2nc(C3CCC3)sc2N2CCOCC2)o1 gave an EC50 of less than 400 nM.

For O=C1Nc2ccccc2C(c2ccccc2)=N[C@@H]1Nc1nnc(-c2cn(-c3ccccn3)nc2N2CCOCC2)o1, the EC50 was less than 400 nM.

In the case of CCOC(=O)c1cn(CC)nc1N1CCOCC1, the EC50 is reported as less than 400 nM.

COCC(C)(C)Nc1cc(C(F)(F)F)cnc1-c1nnc(N[C@H]2N=C(c3ccccc3)c3ccccc3NC2=O)o1 showed an EC50 greater than 800 nM.

O=C1Nc2ccccc2C(c2ccccc2)=NC1Nc1nnc(C2CC2)[nH]1 (stereo unspecified) showed an EC50 greater than 800 nM.

Cc1nc(-c2nnc(N[C@H]3N=C(c4ccccc4)c4ccccc4NC3=O)o2)cs1 showed an EC50 greater than 800 nM.

CSC(=N)NC1N=C(c2ccccc2)c2ccccc2NC1=O (stereo unspecified) showed an EC50 of less than 400 nM.

For COC(=O)c1occc1N1CCOCC1, the EC50 was less than 400 nM.

For N#Cc1ccc(-c2nnc(NC3N=C(c4ccccc4)c4ccccc4NC3=O)[nH]2)cc1 (stereo unspecified), the EC50 was “in the range around 600 nM”.

O=C1Nc2ccccc2C(c2ccccc2)=N[C@@H]1Nc1nnc(-c2ncc(C(F)(F)F)cc2NC[C@H]2CCCO2)o1 showed an EC50 of less than 400 nM.

For N#Cc1ccc(-c2cnc(NC3N=C(c4ccccc4)c4ccccc4NC3=O)o2)cc1 (stereo unspecified), the EC50 was “in the range around 600 nM”.

For O=C1Nc2ccccc2C(c2ccccc2)=NC1Nc1nnc(-c2ccncc2)[nH]1 (stereo unspecified), the EC50 was greater than 800 nM.

In the case of O=C1Nc2ccccc2C(c2ccccc2)=N[C@@H]1Nc1nnc(-c2cnn(-c3ccccc3)c2)o1, the EC50 is reported as “in the range around 600 nM”.

For CCOC(=O)c1ccnc2ccc(OC)cc12, the EC50 was greater than 800 nM.

For COCCc1cccn2ncc(-c3nnc(N[C@H]4N=C(c5ccccc5)c5ccccc5NC4=O)o3)c12, the EC50 was greater than 800 nM.

In the case of CCOC(=O)c1ccnc2ccc(COC)cc12, the EC50 is reported as greater than 800 nM.

In the case of O=C1Nc2ccccc2C(c2ccccc2)=N[C@@H]1Nc1nnc(-c2csc(N3CCOCC3)n2)o1, the EC50 is reported as “in the range around 600 nM”.

Work on N#Cc1ccc(-c2ccc(NC3N=C(c4ccccc4)c4ccccc4NC3=O)nn2)cc1 (stereo unspecified) yielded an EC50 of less than 400 nM.

With N#Cc1cccc(C2=NC(Nc3nnc(-c4ccc(F)cc4)o3)C(=O)Nc3ccccc32)c1 (stereo unspecified) the EC50 was greater than 800 nM.

In the case of O=C1Nc2ccccc2C(c2ccccc2)=N[C@@H]1Nc1nnc(-c2nc(-c3ccc(F)cc3)sc2N2CCOCC2)o1, the EC50 is reported as less than 400 nM.

For COC(=O)c1cc(C2CC2)sc1N1CCOCC1, the EC50 was less than 400 nM.

O=C1Nc2ccccc2C(c2ccccc2)=NC1Nc1ccc(-c2ccncc2)nn1 (stereo unspecified) gave an EC50 greater than 800 nM.

Work on O=C1Nc2ccccc2C(c2ccccc2)=N[C@@H]1Nc1nnc(-c2cc(C(F)(F)F)sc2N2CCOCC2)o1 yielded an EC50 of less than 400 nM.

With O=C1Nc2ccccc2C(c2ccccc2)=NC1Nc1nnc(-c2ccccc2C2=CCOCC2)o1 (stereo unspecified) the EC50 was greater than 800 nM.

O=C1Nc2c(F)cccc2C(c2ccccc2)=N[C@H]1Nc1nnc(-c2ncc(C(F)(F)F)cc2N2CCOCC2)o1 showed an EC50 of less than 400 nM.

With O=C1Nc2c(F)cccc2C(c2ccccc2)=N[C@H]1Nc1nnc(-c2cccnc2N2CCOCC2)o1 the EC50 was > 800 nM and < 400 nM.

For O=C1Nc2ccccc2C(c2ccccc2)=NC1Nc1nnc(-c2ccccc2C2CCOCC2)o1 (stereo unspecified), the EC50 was greater than 800 nM.

In the case of O=C1Nc2c(Cl)cccc2C(c2ccccc2)=NC1Nc1nnc(-c2ccccc2N2CCOCC2)o1 (stereo unspecified), the EC50 is reported as greater than 800 nM.

For COc1ccccc1-c1nc(-c2nnc(N[C@H]3N=C(c4ccccc4)c4ccccc4NC3=O)o2)c(N2CCOCC2)s1, the EC50 was less than 400 nM.

In the case of CCc1nc(-c2nnc(N[C@H]3N=C(c4ccccc4)c4ccccc4NC3=O)o2)c(N2CCOCC2)s1, the EC50 is reported as less than 400 nM.

For Cc1nc(-c2nnc(N[C@H]3N=C(c4ccccc4)c4ccccc4NC3=O)o2)c(C2CCOCC2)s1, the EC50 was less than 400 nM.

With Cc1nc(-c2nnc(N[C@H]3N=C(c4ccccc4)c4ccccc4NC3=O)o2)c(N2CCOCC2)o1 the EC50 was less than 400 nM.

Compound O=C1Nc2ccccc2C(c2ccccc2)=NC1Nc1ncc(-c2ccc(F)cc2)o1 (stereo unspecified) has an EC50 greater than 800 nM.

CC(C)n1cc(-c2nnc(N[C@H]3N=C(c4ccccc4)c4ccccc4NC3=O)o2)c(N2CCOCC2)n1 showed an EC50 of less than 400 nM.

Compound COCCCc1sc(C(F)(F)F)nc1-c1nnc(N[C@H]2N=C(c3ccccc3)c3ccccc3NC2=O)o1 has an EC50 greater than 800 nM.

For COCCCc1cc(C(F)(F)F)cnc1-c1nnc(N[C@H]2N=C(c3ccccc3)c3ccccc3NC2=O)o1, the EC50 was greater than 800 nM.

With O=C1Nc2ccccc2C(c2ccccc2)=N[C@@H]1Nc1nnc(-c2ncc(C(F)(F)F)cc2N[C@@H]2CCC[C@@H]2O)o1 the EC50 was “in the range around 600 nM”.

Compound O=C1Nc2ccccc2C(c2ccccc2)=NC1Nc1ncc(-c2ccc(Br)cc2)o1 (stereo unspecified) has an EC50 greater than 800 nM.

In the case of O=C1Nc2ccccc2C(c2ccccc2)=NC1Nc1ccc(-c2ccc(F)cc2)nn1 (stereo unspecified), the EC50 is reported as greater than 800 nM.

With CCOC(=O)c1nc(-c2ccc(F)cn2)sc1N1CCOCC1 the EC50 was less than 400 nM.

For O=C1Nc2ccccc2C(c2ccccc2)=N[C@@H]1Nc1nnc(-c2cc3ccccc3nc2N2CCOCC2)o1, the EC50 was less than 400 nM.

Compound O=C1Nc2ccccc2C(c2ccccc2)=N[C@@H]1Nc1nnc(-c2cn(C3CCC3)nc2N2CCOCC2)o1 has an EC50 of less than 400 nM.

In the case of O=C1Nc2ccccc2C(c2ccccc2)=N[C@@H]1Nc1nnc(-c2ncc(C(F)(F)F)cc2NCc2ccco2)o1, the EC50 is reported as greater than 800 nM.

For O=C1Nc2ccccc2C(c2ccccc2)=N[C@@H]1Nc1nnc(-c2nc(-c3ccccc3)sc2N2CCOCC2)o1, the EC50 was less than 400 nM.

Work on CC(F)(F)c1nc(-c2nnc(N[C@H]3N=C(c4ccccc4)c4ccccc4NC3=O)o2)c(N2CCOCC2)s1 yielded an EC50 of less than 400 nM.

In the case of O=C1Nc2ccccc2C(c2ccccc2)=NC1Nc1nnc(-c2nc(Br)sc2N2CCOCC2)o1 (stereo unspecified), the EC50 is reported as less than 400 nM.

Compound O=C1Nc2ccccc2C(c2ccccc2)=N[C@@H]1Nc1nnc(-c2nsnc2N2CCOCC2)o1 has an EC50 of less than 400 nM.

Compound CCOC(=O)c1cn(-c2cccnc2)nc1N1CCOCC1 has an EC50 of less than 400 nM.

For O=C1Nc2ccccc2C(c2ccccc2)=NC1Nc1nnc(-c2ccccc2N2CCOCC2)[nH]1 (stereo unspecified), the EC50 was greater than 800 nM.

In the case of COC(=O)c1nc(-c2ccccn2)sc1Cl, the EC50 is reported as less than 400 nM.

In the case of O=C1Nc2ccccc2C(c2ccccc2)=N[C@@H]1Nc1nnc(-c2ncc(C(F)(F)F)cc2N[C@H]2CCC[C@H]2O)o1, the EC50 is reported as “in the range around 600 nM”.

With O=C1Nc2c(F)cccc2C(c2ccccc2)=N[C@H]1Nc1nnc(-c2ccccc2N2CCOCC2)o1 the EC50 was greater than 800 nM.

For CC1(Nc2cc(C(F)(F)F)cnc2-c2nnc(N[C@H]3N=C(c4ccccc4)c4ccccc4NC3=O)o2)CCOC1 (stereo partly specified), the EC50 was greater than 800 nM.

With COC[C@@H]1C[C@H]1c1sc(C(F)(F)F)nc1-c1nnc(N[C@H]2N=C(c3ccccc3)c3ccccc3NC2=O)o1 the EC50 was greater than 800 nM.
